Test results from patent US20250324971A1, “HERBICIDAL DERIVATIVES” (SYNGENTA CROP PROTECTION AG, priority 2022, published 2025).

Assays:
Type in all cases: in vivo
Setaria faberi (SETFA) [1] = assay: Pre-Emergence Test (herbicidal, glasshouse pots); settings: evaluated after 13 days, five-point scale
[2] = test system: Ipomoea hederacea (IPOHE); assay: Pre-Emergence Test (herbicidal, glasshouse pots); settings: evaluated after 13 days, five-point scale
[3] = test system: Echinochloa crus-galli (ECHCG); assay: Pre-Emergence Test (herbicidal, glasshouse pots); settings: evaluated after 13 days, five-point scale
[4] = test system: Amaranthus retoflexus (AMARE); assay: Pre-Emergence Test (herbicidal, glasshouse pots); settings: evaluated after 13 days, five-point scale
Zea mays (ZEAMX) [5] = assay: Pre-Emergence Test (herbicidal, glasshouse pots); settings: evaluated after 13 days, five-point scale
[6] = test system: Amaranthus palmeri (AMAPA); assay: Pre-Emergence Test (herbicidal, glasshouse pots); settings: evaluated after 13 days, five-point scale
[7] = test system: Amaranthus palmeri (AMAPA); assay: Post-Emergence Test (herbicidal, glasshouse pots); settings: evaluated after 13 days
How it was run: (§1)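 Pots in glasshouse (24/16 °C, 14 h light, 65% RH), sprayed with a.i. in acetone/water 50:50 + 0.5% Tween 20; rate in g/ha. Watered twice daily; % damage read at 13 d, scored 5=81-100%, 4=61-80%, 3=41-60%, 2=21-40%, 1=0-20%.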

[8] = test system: Amaranthus retoflexus (AMARE); assay: Post-Emergence Test (herbicidal, glasshouse pots); settings: evaluated after 13 days
How it was run: as §1

[9] = test system: Echinochloa crus-galli (ECHCG); assay: Post-Emergence Test (herbicidal, glasshouse pots); settings: evaluated after 13 days
How it was run: as §1

[10] = test system: Ipomoea hederacea (IPOHE); assay: Post-Emergence Test (herbicidal, glasshouse pots); settings: evaluated after 13 days
How it was run: as §1

Setaria faberi (SETFA) [11] = assay: Post-Emergence Test (herbicidal, glasshouse pots); settings: evaluated after 13 days
How it was run: as §1

Zea mays (ZEAMX) [12] = assay: Post-Emergence Test (herbicidal, glasshouse pots); settings: evaluated after 13 days
How it was run: as §1

| SMILES | percentage damage caused to the plant, SETFA (Setaria faberi (SETFA) [1]; rate 250 g/ha) | percentage damage caused to the plant, IPHOE ([2]; rate 250 g/ha) | percentage damage caused to the plant, ECHCG ([3]; rate 250 g/ha) | percentage damage caused to the plant, AMARE ([4]; rate 250 g/ha) | percentage damage caused to the plant, ZEAMX (Zea mays (ZEAMX) [5]; rate 250 g/ha) | percentage damage caused to the plant, AMAPA ([6]; rate 250 g/ha) | Post-Emergence Test AMAPA percentage damage (five-point scale) ([7]; rate 250 g/ha) | Post-Emergence Test AMARE percentage damage (five-point scale) ([8]; rate 250 g/ha) | Post-Emergence Test ECHCG percentage damage (five-point scale) ([9]; rate 250 g/ha) | Post-Emergence Test IPHOE percentage damage (five-point scale) ([10]; rate 250 g/ha) | Post-Emergence Test SETFA percentage damage (five-point scale) (Setaria faberi (SETFA) [11]; rate 250 g/ha) | Post-Emergence Test ZEAMX percentage damage (five-point scale) (Zea mays (ZEAMX) [12]; rate 250 g/ha) | percentage damage caused to the plant, SETFA (Setaria faberi (SETFA) [1]; rate 1000 g/ha) | percentage damage caused to the plant, IPHOE ([2]; rate 1000 g/ha) | percentage damage caused to the plant, ECHCG ([3]; rate 1000 g/ha) | percentage damage caused to the plant, AMARE ([4]; rate 1000 g/ha) | percentage damage caused to the plant, ZEAMX (Zea mays (ZEAMX) [5]; rate 1000 g/ha) | percentage damage caused to the plant, AMAPA ([6]; rate 1000 g/ha) | Post-Emergence Test AMAPA percentage damage (five-point scale) ([7]; rate 1000 g/ha) | Post-Emergence Test AMARE percentage damage (five-point scale) ([8]; rate 1000 g/ha) | also measured |
| --- | --- | --- | --- | --- | --- | --- | --- | --- | --- | --- | --- | --- | --- | --- | --- | --- | --- | --- | --- | --- | --- |
| CCn1c(Oc2ccc(C(F)(F)F)cc2)cc(=O)c(C(=O)O)c1-c1ccc(Cl)c(Cl)c1 [Compound 27, 2-(3,4-dichlorophenyl)-1-ethyl-4-oxo-6-[4-(trifluoromethyl)phenoxy]pyridine-3-carboxylic acid] | 4 (4=61-80%) | 0 | 1 (1=0-20%) | 1 (1=0-20%) | 0 | 1 (1=0-20%) | 4 (4=61-80%) | 4 (4=61-80%) | 4 (4=61-80%) | 4 (4=61-80%) | 5 (5=81-100%) | 2 (2=21-40%) |  |  |  |  |  |  |  |  |  |
| CCn1c(Oc2ccc(F)c(F)c2)cc(=O)c(C(=O)O)c1-c1ccc(Cl)c(Cl)c1 [Compound 28, 2-(3,4-dichlorophenyl)-6-(3,4-difluorophenoxy)-1-ethyl-4-oxo-pyridine-3-carboxylic acid] |  |  |  |  |  |  |  |  |  |  |  |  | 5 (5=81-100%) | 4 (4=61-80%) | 4 (4=61-80%) | 5 (5=81-100%) | 4 (4=61-80%) | 4 (4=61-80%) | 4 (4=61-80%) | 4 (4=61-80%) | Post-Emergence Test ECHCG percentage damage (five-point scale) ([9]; rate 1000 g/ha): 4 (4=61-80%); Post-Emergence Test IPHOE percentage damage (five-point scale) ([10]; rate 1000 g/ha): 3 (3=41-60%); Post-Emergence Test SETFA percentage damage (five-point scale) (Setaria faberi (SETFA) [11]; rate 1000 g/ha): 4 (4=61-80%); Post-Emergence Test ZEAMX percentage damage (five-point scale) (Zea mays (ZEAMX) [12]; rate 1000 g/ha): 4 (4=61-80%) |
| CCn1c(Oc2cc(F)ccc2Cl)cc(=O)c(C(=O)O)c1-c1ccc(Cl)c(Cl)c1 [Compound 35, 6-(2-chloro-5-fluoro-phenoxy)-2-(3,4-dichlorophenyl)-1-ethyl-4-oxo-pyridine-3-carboxylic acid] |  |  |  |  |  |  |  |  |  |  |  |  | 5 (5=81-100%) | 0 | 5 (5=81-100%) | 1 (1=0-20%) | 1 (1=0-20%) | 0 | 3 (3=41-60%) | 3 (3=41-60%) | Post-Emergence Test ECHCG percentage damage (five-point scale) ([9]; rate 1000 g/ha): 4 (4=61-80%); Post-Emergence Test IPHOE percentage damage (five-point scale) ([10]; rate 1000 g/ha): 2 (2=21-40%); Post-Emergence Test SETFA percentage damage (five-point scale) (Setaria faberi (SETFA) [11]; rate 1000 g/ha): 4 (4=61-80%); Post-Emergence Test ZEAMX percentage damage (five-point scale) (Zea mays (ZEAMX) [12]; rate 1000 g/ha): 2 (2=21-40%) |
| CCn1c(Oc2ccn(C)n2)cc(=O)c(C(=O)O)c1-c1ccc(Cl)c(Cl)c1 [Compound 37, 2-(3,4-dichlorophenyl)-1-ethyl-6-(1-methylpyrazol-3-yl)oxo-4-oxo-pyridine-3-carboxylic acid] |  |  |  |  |  |  |  |  |  |  |  |  |  |  |  |  |  |  |  |  | percentage damage caused to the plant, SETFA (Setaria faberi (SETFA) [1]; rate 62.5 g/ha): 5 (5=81-100%); percentage damage caused to the plant, IPHOE ([2]; rate 62.5 g/ha): 3 (3=41-60%); percentage damage caused to the plant, ECHCG ([3]; rate 62.5 g/ha): 4 (4=61-80%); percentage damage caused to the plant, AMARE ([4]; rate 62.5 g/ha): 2 (2=21-40%); percentage damage caused to the plant, ZEAMX (Zea mays (ZEAMX) [5]; rate 62.5 g/ha): 3 (3=41-60%); percentage damage caused to the plant, AMAPA ([6]; rate 62.5 g/ha): 2 (2=21-40%); Post-Emergence Test AMAPA percentage damage (five-point scale) ([7]; rate 62.5 g/ha): 4 (4=61-80%); Post-Emergence Test AMARE percentage damage (five-point scale) ([8]; rate 62.5 g/ha): 4 (4=61-80%); Post-Emergence Test ECHCG percentage damage (five-point scale) ([9]; rate 62.5 g/ha): 4 (4=61-80%); Post-Emergence Test IPHOE percentage damage (five-point scale) ([10]; rate 62.5 g/ha): 3 (3=41-60%); Post-Emergence Test SETFA percentage damage (five-point scale) (Setaria faberi (SETFA) [11]; rate 62.5 g/ha): 4 (4=61-80%); Post-Emergence Test ZEAMX percentage damage (five-point scale) (Zea mays (ZEAMX) [12]; rate 62.5 g/ha): 4 (4=61-80%) |
| CCn1c(Oc2ccc(Cl)cn2)cc(=O)c(C(=O)O)c1-c1ccc(Cl)c(Cl)c1 [Compound 38, 6-[(5-chloro-2-pyridyl)oxy]-2-(3,4-dichlorophenyl)-1-ethyl-4-oxo-pyridine-3-carboxylic acid] | 5 (5=81-100%) | 4 (4=61-80%) | 5 (5=81-100%) | 3 (3=41-60%) | 4 (4=61-80%) | 2 (2=21-40%) | 4 (4=61-80%) | 4 (4=61-80%) | 3 (3=41-60%) | 4 (4=61-80%) | 4 (4=61-80%) | 4 (4=61-80%) |  |  |  |  |  |  |  |  |  |
